Laboratory results taken from ChEMBL document CHEMBL5137124, “Mutasynthesis Generates Antibacterial Benzothiophenic-Containing Nosiheptide Analogues” (2022).
In brackets after ≈: the same amount, converted by molar mass.

Experiments:
Assay type in all cases: functional
Enterococcus faecium [1] = experiment: Antibacterial activity against gram positive vancomycin-resistant Enterococcus faecium ATCC 51559 assessed as inhibition of bacterial growth incubated for 20 hrs by microtiter plate method
Staphylococcus aureus [2] = experiment: Antibacterial activity against gram positive methicillin-sensitive Staphylococcus aureus ATCC 6538 assessed as inhibition of bacterial growth incubated for 20 hrs by microtiter plate method
Staphylococcus aureus [3] = experiment: Antibacterial activity against gram positive methicillin-sensitive Staphylococcus aureus ATCC 25923 assessed as inhibition of bacterial growth incubated for 20 hrs by microtiter plate method
Staphylococcus aureus [4] = experiment: Antibacterial activity against gram positive methicillin-resistant Staphylococcus aureus ATCC 43300 assessed as inhibition of bacterial growth incubated for 20 hrs by microtiter plate method
Staphylococcus aureus [5] = experiment: Antibacterial activity against gram positive methicillin-resistant Staphylococcus aureus HCCB 20251 assessed as inhibition of bacterial growth incubated for 20 hrs by microtiter plate method
Staphylococcus aureus [6] = experiment: Antibacterial activity against gram positive methicillin-resistant Staphylococcus aureus HCCB 20252 assessed as inhibition of bacterial growth incubated for 20 hrs by microtiter plate method
Enterococcus faecium [7] = experiment: Antibacterial activity against gram positive vancomycin-sensitive Enterococcus faecium CICC 20419 assessed as inhibition of bacterial growth incubated for 20 hrs by microtiter plate method
Enterococcus faecium [8] = experiment: Antibacterial activity against gram positive vancomycin-sensitive Enterococcus faecium CICC 6049 assessed as inhibition of bacterial growth incubated for 20 hrs by microtiter plate method

Structure (SMILES) | MIC (Enterococcus faecium [1]) | MIC (Staphylococcus aureus [2]) | MIC (Staphylococcus aureus [3]) | MIC (Staphylococcus aureus [4]) | MIC (Staphylococcus aureus [5]) | MIC (Staphylococcus aureus [6]) | MIC (Enterococcus faecium [7]) | MIC (Enterococcus faecium [8])
CN[C@H](CC(C)C)C(=O)N[C@H]1C(=O)N[C@@H](CC(N)=O)C(=O)N[C@H]2C(=O)N[C@H]3C(=O)N[C@H](C(=O)N[C@H](C(=O)O)c4cc(O)cc(O)c4-c4cc3ccc4O)[C@H](O)c3ccc(c(Cl)c3)Oc3cc2cc(c3O[C@@H]2O[C@H](CO)[C@@H](O)[C@H](O)[C@H]2O[C@H]2C[C@](C)(N)[C@H](O)[C@H](C)O2)Oc2ccc(cc2Cl)[C@H]1O [VANCOMYCIN] | > 128 µg/mL | – | – | – | – | – | – | –
C=C(NC(=O)C(=C)NC(=O)c1csc(-c2ccc3c(n2)-c2csc(n2)[C@@H]2CSC(=O)c4[nH]c5cccc(c5c4C)COC(=O)CC[C@H](NC(=O)c4csc(n4)/C(=C/C)NC(=O)[C@H]([C@@H](C)O)NC(=O)c4csc-3n4)c3nc(cs3)C(=O)N2)n1)C(=O)O | 0.512 µg/mL (≈ 0.406 µM) | 0.016 µg/mL (≈ 0.0127 µM) | 0.016 µg/mL (≈ 0.0127 µM) | 0.032 µg/mL (≈ 0.0254 µM) | 0.064 µg/mL (≈ 0.0508 µM) | 0.064 µg/mL (≈ 0.0508 µM) | 1.02 µg/mL (≈ 0.812 µM) | > 1.02 µg/mL
C=C(NC(=O)c1csc(-c2nc3c(cc2O)-c2nc(cs2)C(=O)N[C@@H]([C@@H](C)O)C(=O)N/C(=C\C)c2nc(cs2)C(=O)N[C@H]2C[C@H](O)C(=O)OCc4cccc5[nH]c(c(C)c45)C(=O)SC[C@H](NC(=O)c4csc2n4)c2nc-3cs2)n1)C(N)=O | ≤ 0.008 µg/mL | 0.002 µg/mL (≈ 0.00164 µM) | 0.008 µg/mL (≈ 0.00654 µM) | 0.008 µg/mL (≈ 0.00654 µM) | 0.008 µg/mL (≈ 0.00654 µM) | 0.008 µg/mL (≈ 0.00654 µM) | 0.032 µg/mL (≈ 0.0262 µM) | 0.016 µg/mL (≈ 0.0131 µM)
C=C(NC(=O)c1csc(-c2nc3c(cc2O)-c2nc(cs2)C(=O)N[C@@H]([C@@H](C)O)C(=O)N/C(=C\C)c2nc(cs2)C(=O)N[C@H]2CCC(=O)OCc4cccc5sc(c(C)c45)C(=O)SC[C@H](NC(=O)c4csc2n4)c2nc-3cs2)n1)C(N)=O | 0.032 µg/mL (≈ 0.0262 µM) | 0.004 µg/mL (≈ 0.00327 µM) | 0.032 µg/mL (≈ 0.0262 µM) | 0.008 µg/mL (≈ 0.00654 µM) | 0.016 µg/mL (≈ 0.0131 µM) | 0.008 µg/mL (≈ 0.00654 µM) | 0.064 µg/mL (≈ 0.0523 µM) | 0.064 µg/mL (≈ 0.0523 µM)
C=C(NC(=O)C(=C)NC(=O)c1csc(-c2ccc3c(n2)-c2csc(n2)[C@@H]2CSC(=O)c4sc5cccc(c5c4C)COC(=O)CC[C@H](NC(=O)c4csc(n4)/C(=C/C)NC(=O)[C@H]([C@@H](C)O)NC(=O)c4csc-3n4)c3nc(cs3)C(=O)N2)n1)C(=O)O | 0.512 µg/mL (≈ 0.401 µM) | 0.016 µg/mL (≈ 0.0125 µM) | 0.032 µg/mL (≈ 0.025 µM) | 0.032 µg/mL (≈ 0.025 µM) | 0.064 µg/mL (≈ 0.0501 µM) | 0.032 µg/mL (≈ 0.025 µM) | 1.02 µg/mL (≈ 0.802 µM) | 1.02 µg/mL (≈ 0.802 µM)
C=C(NC(=O)c1csc(-c2nc3c(cc2O)-c2nc(cs2)C(=O)N[C@@H]([C@@H](C)O)C(=O)N/C(=C\C)c2nc(cs2)C(=O)N[C@H]2C[C@H](O)C(=O)OCc4cccc5sc(c(C)c45)C(=O)SC[C@H](NC(=O)c4csc2n4)c2nc-3cs2)n1)C(N)=O | 0.016 µg/mL (≈ 0.0129 µM) | 0.004 µg/mL (≈ 0.00323 µM) | 0.008 µg/mL (≈ 0.00645 µM) | 0.008 µg/mL (≈ 0.00645 µM) | 0.016 µg/mL (≈ 0.0129 µM) | 0.008 µg/mL (≈ 0.00645 µM) | 0.064 µg/mL (≈ 0.0516 µM) | 0.064 µg/mL (≈ 0.0516 µM)
